Laboratory results from ChEMBL document CHEMBL1148930, “DNA polymerase beta lyase inhibitors from Maytenus putterlickoides” (J Nat Prod, 2004).

Experiments:
[1] = biological target: DNA polymerase beta (Rattus norvegicus, UniProt P06766); assay: Inhibition of lyase activity of rat DNA polymerase beta after 30 mins by deoxyribose phosphate excision assay
[2] = test system: A549; assay: Cytotoxicity against human A549 cells assessed as cell viability at 200 uM after 48 hrs by MTT assay relative to control; assay type: functional; details: A549, 48 h, read-out: Activity
[3] = test system: A549; assay: Cytotoxicity against human A549 cells assessed as cell viability at 62.5 uM after 48 hrs by MTT assay relative to control; assay type: functional; details: A549, 48 h, read-out: Activity
[4] = test system: A549; assay: Potentiation of methyl methanesulfonate-induced cytotoxicity against human A549 cells assessed as cell viability after 48 hrs by MTT assay relative to control; assay type: functional

IC50 [1] | Structure (SMILES) | viability at 200 µM [2] | viability at 62.5 µM [3] | Activity [4]
18.5 µM | Oc1cc(O)c2c(c1)O[C@H](c1ccc(O)c(O)c1)[C@H](O)C2 [(-)-EPICATECHIN] | 100% | 100% | 86.6%
62.8 µM | C=C(COC(=O)c1ccc(O)cc1)[C@@H]1CC[C@]2(C)CC[C@]3(C)[C@H](C[C@@H](O)[C@@H]4[C@@]5(C)CCC(=O)C(C)(C)[C@@H]5CC[C@]43C)[C@@H]12 | 100% | 100% | 100%
